Patent publication US3968204A, “Antibiotic A-2315” (priority 1975, dated 1976)
Converted amounts (≈) assume the structure as drawn.

Assays:
Clostridium ramosum = assay: MIC, anaerobic bacteria; assay type: cell-based; conditions: Thomasclavelia ramosa
Salmonella typhosa = assay: Agar-dilution MIC; conditions: Salmonella enterica
Peptococcus anaerobius = assay: MIC, anaerobic bacteria; assay type: cell-based
Veillonella alcalescens = assay: MIC, anaerobic bacteria; assay type: cell-based; conditions: Veillonella parvula
[1] = tested on: experimental bacterial infections; assay: In vivo antimicrobial action in mice; conditions: subcutaneous injection
Protocol: (§1) When two doses each of A-2315 factors were administered to mice in illustrative infections, the ED50 values [effective dose in mg/kg to protect 50 percent of the test aninals; see Warren Wick, et al., J. Bacteriol.

Streptococcus faecalis = assay: Agar-dilution MIC; assay type: cell-based; conditions: Enterococcus faecalis; Agar-Dilution Method
Clostridium septicum = assay: MIC, anaerobic bacteria; assay type: cell-based
Eubacterium aerofaciens = assay: MIC, anaerobic bacteria; assay type: cell-based; conditions: Collinsella aerofaciens
Mycobacterium avium = assay: Disc-plate MIC; conditions: Disc-Plate Method
[2] = tested on: Staphylococcus aureus 3130; assay: Disc-plate MIC; conditions: Disc-Plate Method; benzylpenicillin-resistant, methicillin-resistant
[3] = tested on: Staphylococcus aureus 3074; assay: Disc-plate MIC; conditions: Disc-Plate Method; benzylpenicillin-resistant, methicillin-resistant
[4] = tested on: Peptostreptococcus intermedius; assay: MIC, anaerobic bacteria; assay type: cell-based
Clostridium perfringens = assay: microbe, parasite or virus in culture; assay type: cell-based
Ruminal VFA = assay: Ruminal volatile fatty acids in vitro; parameters: species or system steer; conditions: 16 hours, 38°C
Excerpt: Rumen fluid is obtained from a steer with a surgically-installed fistula opening into the rumen. The steer is maintained on a high-grain ration, the composition of which follows:
A sample of rumen fluid is strained through four layers of cheesecloth, and the filtrate is collected. The particulate matter retained by the cheesecloth is resuspended in enough physiological buffer to return it to the original volume of the rumen fluid, and this suspension is strained again. The buffer used has the following composition:
The two filtrates are combined and allowed to stand until particulate matter separates to the top. The clear layer is separated, diluted with the same buffer (1:1) and then adjusted to pH 7.0.
The diluted rumen fluid (10 ml) is placed in a 25-ml flask with 40 mg of the above-described feed, an additional 5 mg of soybean protein, and the test compound. Four replicate flasks are used per treatment. Two sets of four control flasks each are also employed. A zero-time control and an incubated 16-hour control are used. All test flasks are incubated for 16 hours at 38°C. After incubation, the pH is measured; and 25 percent metaphosphoric acid (2 ml) is added to each flask. The samples are allowed to settle, and the supernatant is analyzed by gas chromatography for propionate, acetate, butyrate compounds.
Test-compound results are statistically compared with control results.

[5] = tested on: cariogenic Streptococcus sp.; assay: Artificial plaque glass rod test; assay type: cell-based; conditions: 0.1% solution, contact with plaque-encrusted rods as little as 5 minutes
Protocol: Narrow glass rods, which extend below the surface of the nutrient broth, are inserted into the tubes. After incubation at 37°C. overnight, a layer of artificial plaque (primarily cells and dextran) forms on the surface of the rods. The rods are then transferred to solutions containing varying concentrations of test compound and are allowed to remain in contact with these solutions for periods of 5, 10, and 15 minutes. After the appropriate time has elapsed, the rods are rinsed by dipping in sterile, deionized water; the rods are then incubated overnight at 37°C. in uninoculated medium containing sucrose and bromothymol blue. Growth is detected by observing the color change of bromothymol blue from green to yellow, due to acid production by the organisms when grown in a sucrose-containing medium.

Streptococcus pyogenes [6] = assay: Disc-plate MIC; conditions: Disc-Plate Method
Shigella flexneri = assay: Disc-plate MIC; assay type: cell-based; conditions: Disc-Plate Method
[7] = tested on: bean rust (Uromyces phaseoli var. typica); assay: Plant-fungicidal activity on bean plants; assay type: in vivo; conditions: 400 ppm
Excerpt: (§2) In yet another aspect of the invention, the A-2315 antibiotics are useful as plant-fungicidal agents.

Streptococcus pyogenes [8] = assay: Protection of mice against experimental bacterial infection; assay type: in vivo; conditions: sc, subcutaneous, two doses
Protocol: as §1

Actinomyces bovis = assay: MIC, anaerobic bacteria; assay type: cell-based
Proteus sp. = assay: Disc-plate MIC; conditions: Disc-Plate Method
Acute toxicity in mice = assay type: in vivo
Protocol: The acute toxicity of antibiotic A-2315 factor A, administered either orally or subcutaneously to mice and expressed as LDo, is greater than 500 mg./kg. The acute toxicities of the A-2315 factors, administered intraperitoneally to mice and expressed as LD50 are as follows: […]

Sarcina lutea = assay: Disc-plate MIC; conditions: Disc-Plate Method
[9] = Growth performance of growing chicks; assay type: in vivo; conditions: 45.4 grams/ton in diet
Protocol: Still another useful property of the A-2315 antibiotics is their ability to improve growth performance in animals. For example, when A-2315 factor A was added to the diet of growing chicks at a level of 45.4 grams/ton, the average weight gain after 10 days was 159 grams, as compared with an average weight gain of 148 grams for the control group. The feed-conversion efficiency (feed/gain) for chickens fed antibiotic A-2315 factor A was 1.44; in contrast, the feed-conversion efficiency for the control group was 1.53.

[10] = tested on: anthracnose (Colletotrichum lagenarium); assay type: in vivo; conditions: 400 ppm
Excerpt: as §2

[11] = 0.1 mcg per ml diluted rumen fluid
[12] = 0.3 mcg per ml diluted rumen fluid
[13] = 1.0 mcg per ml diluted rumen fluid

CC1=CC(O)CC(O)Cc2nc(co2)C(=O)NC(C)C(=O)OC(C(C)C)C(C)C=CC(=O)NCC=C1 (centres unmarked) [Factor A]
MIC (Clostridium ramosum): 8 µg/mL (≈ 15.9 µM)
MIC (Salmonella typhosa): > 100 µg/mL
MIC (Peptococcus anaerobius): 2 µg/mL (≈ 3.97 µM)
MIC (Veillonella alcalescens): 16 µg/mL (≈ 31.8 µM)
in vivo antimicrobial action [1]: have shown in vivo antimicrobial action
MIC (Streptococcus faecalis): 1.56 µg/mL (≈ 3.1 µM)
MIC (Clostridium septicum): 32 µg/mL (≈ 63.5 µM)
MIC (Eubacterium aerofaciens): 16 µg/mL (≈ 31.8 µM)
MIC (Mycobacterium avium): 3.13 μg/disc
MIC [2]: 0.2 μg/disc
MIC [3]: 0.4 μg/disc
MIC [4]: 8 µg/mL (≈ 15.9 µM)
MIC (Clostridium perfringens): 32 µg/mL (≈ 63.5 µM)
Acetate, ratio of VFA concentration treated to control (Ruminal VFA; [11]): 0.97
Butyrate, ratio of VFA concentration treated to control (Ruminal VFA; [11]): 1.01
Propionate, ratio of VFA concentration treated to control (Ruminal VFA; [11]): 1.07
Total VFA, ratio of concentration treated to control (Ruminal VFA; [11]): 1.04
Acetate, ratio of VFA concentration treated to control (Ruminal VFA; [12]): 0.95
Butyrate, ratio of VFA concentration treated to control (Ruminal VFA; [12]): 1.00
Propionate, ratio of VFA concentration treated to control (Ruminal VFA; [12]): 1.08
Total VFA, ratio of concentration treated to control (Ruminal VFA; [12]): 1.07
Acetate, ratio of VFA concentration treated to control (Ruminal VFA; [13]): 0.95
Butyrate, ratio of VFA concentration treated to control (Ruminal VFA; [13]): 1.04
Propionate, ratio of VFA concentration treated to control (Ruminal VFA; [13]): 1.15
Total VFA, ratio of concentration treated to control (Ruminal VFA; [13]): 1.05
solubility in organic solvents (Solubility): soluble
solubility in water (Solubility): only slightly soluble
effect on cariogenic organism in artificial plaque [5]: effective
MIC (Streptococcus pyogenes [6]): 0.012 μg/disc
MIC (Shigella flexneri): 1.56 μg/disc
protection of bean plants [7]: protected
phytotoxicity ([7]; bean plants): Only slight phytotoxicity
ED50 (Streptococcus pyogenes [8]; Test I, challenge 10,000 × LD50 (ip)): 83 mg/kg
ED50 (Streptococcus pyogenes [8]; Test II): 27.4 mg/kg
MIC (Actinomyces bovis): 16 µg/mL (≈ 31.8 µM)
MIC (Proteus sp.): 100. μg/disc
LD50 (Acute toxicity in mice; mouse, in vivo, ip, intraperitoneally): > 400 mg/kg
acute toxicity, LDo (Acute toxicity in mice; orally): greater than 500 mg./kg.
acute toxicity, LDo (Acute toxicity in mice; subcutaneously): greater than 500 mg./kg.
MIC (Sarcina lutea): 0.008 μg/disc
average weight gain ([9]; after 10 days, control 148 grams): 159 grams
feed-conversion efficiency (feed/gain) ([9]; control 1.53): 1.44
protection of cucumber plants [10]: moderate protection
phytotoxicity ([10]; cucumber plants): Only slight phytotoxicity
